Test results: PMC10094543 (International Journal of Molecular Sciences, 2023)
Where “and” joins values, the source holds several entries; their conditions need not be identical. Identical values can stand only once. Like-named read-outs stand apart in the source and are kept apart here.

Assays:
NgBCCP = assay type: biochemical, Neisseria gonorrhoeae
[1] = biological target: T1, NgBCCP (Neisseria gonorrhoeae bacterial peroxidase) (Neisseria gonorrhoeae, UniProt Q5F5Z9); experiment: steady-state kinetics, ABTS oxidation at […] nm; assay type: biochemical
T1 construct: gene NGO_1769; globular domain only (lipid anchor and AAEAP linker absent), pelB signal peptide, C-terminal His-tag; E. coli BL21(DE3) with pEC86; 38 kDa; di-heme c; Ca-dependent monomer/dimer equilibrium, dimer in crystal
T1 sequence (Q5F5Z9 59-387): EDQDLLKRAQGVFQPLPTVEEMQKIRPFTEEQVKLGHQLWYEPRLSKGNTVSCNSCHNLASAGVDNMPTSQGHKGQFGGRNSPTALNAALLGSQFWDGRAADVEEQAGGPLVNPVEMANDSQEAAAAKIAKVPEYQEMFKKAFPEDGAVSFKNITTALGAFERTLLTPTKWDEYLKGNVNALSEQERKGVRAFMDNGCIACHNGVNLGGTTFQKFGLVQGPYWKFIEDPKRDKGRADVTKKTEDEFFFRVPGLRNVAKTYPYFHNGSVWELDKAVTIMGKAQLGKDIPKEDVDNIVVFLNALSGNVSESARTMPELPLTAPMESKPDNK

P. aeruginosa BCCP = conditions: cited from earlier work
N. europaea BCCP = conditions: pH 7; cited from earlier work
[2] = biological target: mixed-valence NgBCCP (P heme); conditions: read-out: Kapp (apparent dissociation constant); pH 6

Molecule	Vmax app (NgBCCP)	a (α) (NgBCCP)	b (β) (NgBCCP)	mechanism of inhibition (NgBCCP)	Ki (NgBCCP; pH 7.5) [mM]	mechanism of inhibition (NgBCCP; pH 7.5)	Ki [1] [mM]	inhibition mechanism (P. aeruginosa BCCP)	Ki (P. aeruginosa BCCP; pH 6) [mM]	Ki (N. europaea BCCP) [mM]	Kd [2] [mM]
c1c[nH]cn1 [imidazole]	0.55 ± 0.01 µM/s and 0.49 ± 0.01 µM/s and 0.48 ± 0.01 µM/s and 0.65 ± 0.01 µM/s and 0.44 ± 0.02 µM/s and 0.63 ± 0.04 µM/s and 0.58 ± 0.02 µM/s	2.8	0.0	partially uncompetitive	9 ± 4	non-competitive/partially competitive	9 ± 4				
azide	0.56 ± 0.003 µM/s and 0.53 ± 0.004 µM/s and 0.71 ± 0.001 µM/s and 0.66 ± 0.010 µM/s and 0.59 ± 0.001 µM/s	2.4	0.0			non-competitive/partially competitive		non-competitive	3.1	4.7	3.8
